From patent publication US9493396B2, “Substituted naphthalene compounds as calcium sensing receptor modulators” (LUPIN ATLANTIS HOLDINGS SA, priority 2013, dated 2016)
Structures can show the parent of a compound that is named as a salt.

Each compound was assayed against T1, Calcium sensing receptor (hCaSR) (Homo sapiens, UniProt P41180) (assay: In-vitro assay of calcimimetics through modulation of calcium sensing receptor (intracellular calcium increase, FLIPR)). Details: stably transfected HEK293 cells expressing hCaSR; Fluo4NW dye; 0.3 mM CaCl2; 8-point assay; read-out: EC50 in range.
T1 construct: expressed in transfected cells; host or cells: HEK293 (stably transfected)
T1 sequence (P41180 20-1078): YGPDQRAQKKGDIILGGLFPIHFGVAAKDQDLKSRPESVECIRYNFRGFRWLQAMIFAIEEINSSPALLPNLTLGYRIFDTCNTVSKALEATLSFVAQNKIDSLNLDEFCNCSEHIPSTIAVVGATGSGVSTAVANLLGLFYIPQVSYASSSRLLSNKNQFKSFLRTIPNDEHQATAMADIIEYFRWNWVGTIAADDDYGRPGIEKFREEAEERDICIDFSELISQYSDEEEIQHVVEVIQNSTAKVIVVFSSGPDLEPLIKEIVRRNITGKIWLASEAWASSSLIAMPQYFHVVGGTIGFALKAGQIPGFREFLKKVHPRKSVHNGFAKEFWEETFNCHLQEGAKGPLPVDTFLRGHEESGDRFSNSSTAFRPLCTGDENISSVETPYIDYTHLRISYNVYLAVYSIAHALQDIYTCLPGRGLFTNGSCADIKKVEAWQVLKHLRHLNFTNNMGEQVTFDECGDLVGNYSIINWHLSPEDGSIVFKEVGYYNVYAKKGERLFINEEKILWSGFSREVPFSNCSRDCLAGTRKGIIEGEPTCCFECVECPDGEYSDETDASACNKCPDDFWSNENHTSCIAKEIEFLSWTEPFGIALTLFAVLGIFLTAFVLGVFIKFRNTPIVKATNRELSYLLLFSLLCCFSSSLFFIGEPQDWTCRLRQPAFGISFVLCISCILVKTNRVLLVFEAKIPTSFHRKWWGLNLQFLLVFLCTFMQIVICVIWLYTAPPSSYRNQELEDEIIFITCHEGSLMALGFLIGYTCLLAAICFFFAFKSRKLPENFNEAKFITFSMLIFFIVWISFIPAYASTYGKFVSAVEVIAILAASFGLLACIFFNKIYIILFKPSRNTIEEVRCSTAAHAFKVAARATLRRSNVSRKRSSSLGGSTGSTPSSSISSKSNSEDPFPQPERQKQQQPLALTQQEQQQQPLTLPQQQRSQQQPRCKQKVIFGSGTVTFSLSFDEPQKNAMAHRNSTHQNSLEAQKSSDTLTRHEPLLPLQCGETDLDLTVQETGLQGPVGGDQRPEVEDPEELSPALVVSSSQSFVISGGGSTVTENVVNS
Assay type: cell-based
Summary of the method: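 Stably transfected HEK293 cells expressing hCaSR, loaded 30 min with Fluo4NW dye. Intracellular calcium rise measured on FLIPR in 20 mM HEPES buffer with 0.3 mM CaCl2. EC50 derived from 8-point concentration series.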

Structure (SMILES) | EC50 [nM]
COC(=O)c1cc(-c2cc(CN[C@H](C)c3cccc(OC)c3)cc3ccccc23)ccc1F [Example 45, (R)-methyl 2-fluoro-5-(3-(((1-(3-methoxyphenyl)ethyl)amino)methyl)naphthalen-1-yl)benzoate hydrochloride] | < 20
COc1cc(F)cc(C(C)NC(C)c2cc(-c3ccc(C(F)(F)F)cc3)c3ccccc3c2)c1 (single isomer, unassigned) [Example 163a, 1-(3-Fluoro-5-methoxyphenyl)-N-(1-(4-(4-(trifluoromethyl)phenyl)naphthalen-2-yl)ethyl)ethanamine hydrochloride] | 50 to 400
COc1cccc([C@@H](C)NC(C)c2cc(-c3cccc(CCC(=O)O)c3F)c3ccccc3c2)c1 (stereo partly drawn) [Example 129, 3-(2-Fluoro-3-(3-(1-(((R)-1-(3-methoxyphenyl)ethyl)amino)ethyl)naphthalen-1-yl)phenyl)propanoic acid hydrochloride] | < 20
CC(N[C@H](C)c1cccc(Cl)c1)c1cc(-c2ccc(F)c(C(=O)O)c2)c2ccccc2c1 (stereo partly drawn) [Example 127, 5-(3-(1-(((R)-1-(3-Chlorophenyl)ethyl)amino)ethyl)naphthalen-1-yl)-2-fluorobenzoic acid hydrochloride] | 50 to 400
COc1cccc([C@@H](C)NC(C)c2cc(-c3ccc(OC(F)(F)F)cc3)c3ccccc3c2)c1 (stereo partly drawn) [Example 19, (1R)-1-(3-Methoxyphenyl)-N-(1-(4-(4-(trifluoromethoxy)phenyl)naphthalen-2-yl)ethyl)ethanamine hydrochloride] | < 20
CC(N[C@H](C)c1cccc(F)c1)c1cc(-c2ccc(C(F)(F)F)cc2)c2ccccc2c1 (stereo partly drawn) [Example 13, (1R)-1-(3-Fluorophenyl)-N-(1-(4-(4-(trifluoromethyl)phenyl)naphthalen-2-yl)ethyl)ethanamine hydrochloride] | < 20
CCOc1cccc([C@@H](C)NCc2cc(-c3ccc(Cl)c(C(=O)O)c3)c3ccccc3c2)c1 [Example 100, (R)-2-Chloro-5-(3-(((1-(3-ethoxyphenyl)ethyl)amino)methyl)naphthalen-1-yl)benzoic acid hydrochloride] | 20 to 50
COc1cccc([C@@H](C)NC(C)c2cc(-c3ccc(CCC(=O)O)c(F)c3)c3ccccc3c2)c1 (stereo partly drawn) [Example 136, 3-(2-Fluoro-4-(3-(1-(((R)-1-(3-methoxyphenyl)ethyl)amino)ethyl)naphthalen-1-yl)phenyl) propanoic acid hydrochloride] | 20 to 50
COc1cccc([C@@H](C)NCc2cc(-c3ccc(C(C)C)c(C(=O)O)c3)c3ccccc3c2)c1 [Example 105, (R)-2-Isopropyl-5-(3-(((1-(3-methoxyphenyl)ethyl)amino)methyl)naphthalen-1-yl)benzoic acid hydrochloride] | 50 to 400
CCCOc1cccc([C@@H](C)NCc2cc(-c3ccc(C)c(C(=O)O)c3)c3ccccc3c2)c1 [Example 92, (R)-2-Methyl-5-(3-(((1-(3-propoxyphenyl)ethyl)amino)methyl)naphthalen-1-yl)benzoic acid hydrochloride] | 50 to 400
CCOc1cccc([C@@H](C)NC(C)c2cc(-c3ccc(C)c(CCC(=O)O)c3)c3ccccc3c2)c1 (stereo partly drawn) [Example 157, 3-(5-(3-(1-(((R)-1-(3-Ethoxyphenyl)ethyl)amino)ethyl)naphthalen-1-yl)-2-methylphenyl) propanoic acid hydrochloride] | < 20
COc1cccc([C@@H](C)NC(C)c2cc(-c3ccc(C(=O)O)c(C(F)(F)F)c3)c3ccccc3c2)c1 (stereo partly drawn) [Example 124, 4-(3-(1-(((R)-1-(3-Methoxyphenyl)ethyl)amino)ethyl)naphthalen-1-yl)-2-(trifluoromethyl) benzoic acid hydrochloride] | 20 to 50

More lines, now with the values ahead:

EC50 [nM] | Structure (SMILES)
50 to 400 | COc1cc(C(=O)O)cc(-c2cc(C(C)N[C@H](C)c3cccc(OC)c3)cc3ccccc23)c1 (stereo partly drawn) [Example 150, 3-Methoxy-5-(3-(1-(((R)-1-(3-methoxyphenyl)ethyl)amino)ethyl)naphthalen-1-yl)benzoic acid hydrochloride]
< 20 | CC(N[C@H](C)c1cccc2ccccc12)c1cc(-c2ccc(C(F)(F)F)cc2)c2ccccc2c1 (single isomer, unassigned) [Example 9b, hydrochloride]
50 to 400 | COc1cccc([C@@H](C)NCc2cc(-c3ccc(C)c(C(=O)O)c3C)c3ccccc3c2)c1 [Example 109, (R)-3-(3-(((1-(3-Methoxyphenyl)ethyl)amino)methyl)naphthalen-1-yl)-2,6-dimethylbenzoic acid hydrochloride]
< 20 | COc1cccc([C@@H](C)NC(C)c2cc(-c3ccc(F)c(CCC(=O)O)c3)c3ccccc3c2)c1 (stereo partly drawn) [Example 122, 3-(2-Fluoro-5-(3-(1-(((R)-1-(3-methoxyphenyl)ethyl)amino)ethyl)naphthalen-1-yl)phenyl)propanoic acid hydrochloride]
< 20 | COc1ccc(-c2cc(C(C)N[C@H](C)c3cccc(Cl)c3)cc3ccccc23)cc1F (stereo partly drawn) [Example 8, (1R)-1-(3-Chlorophenyl)-N-(1-(4-(3-fluoro-4-methoxyphenyl)naphthalen-2-yl)ethyl)ethanamine hydrochloride]
50 to 400 | COc1cccc([C@@H](C)NCc2cc(-c3ccc(OC)c(C(=O)O)c3)c3ccccc3c2)c1 [Example 104, (R)-2-Methoxy-5-(3-(((1-(3-methoxyphenyl)ethyl)amino)methyl)naphthalen-1-yl)benzoic acid hydrochloride]
50 to 400 | CC(N[C@H](C)c1cccc(Cl)c1)c1cc(-c2ccc(S(C)(=O)=O)cc2)c2ccccc2c1 (stereo partly drawn) [Example 159, (1R)-1-(3-Chlorophenyl)-N-(1-(4-(4-(methylsulfonyl)phenyl)naphthalen-2-yl)ethyl)ethanamine hydrochloride]
20 to 50 | COc1cccc([C@@H](C)NCc2cc(-c3ccc(Cl)c(C(=O)O)c3)c3ccccc3c2)c1 [Example 99, (R)-2-Chloro-5-(3-(((1-(3-methoxyphenyl)ethyl)amino)methyl)naphthalen-1-yl)benzoic acid hydrochloride]
50 to 400 | COc1cccc([C@@H](C)NC(C)c2cc(-c3cc(C)cc(C(=O)O)c3)c3ccccc3c2)c1 (stereo partly drawn) [Example 125, 3-(3-(1-(((R)-1-(3-Methoxyphenyl)ethyl)amino)ethyl)naphthalen-1-yl)-5-methylbenzoic acid hydrochloride]
